Tests used:
[1] = test system: murine U14 cervical carcinoma cells; assay: In vivo antitumor effect of in situ gelation containing xanthatin nanocrystals, tumor implant near the cervix; set-up: species or system female BALB/c mice; settings: hydrogel intravaginal 0.850 mg nanocrystallized xanthatin per mouse daily for 5 days, carboplatin i.v. 0.675 mg per mouse for 3 days
Experimental: Evaluation of the in vivo antitumor effect of in situ gelation containing xanthatin nanocrystals was performed using murine U14 cervical carcinoma cells inoculated into the cervix of female BALB/c mice with an average weights of 22-24 g. Tumor implantation was performed by inoculating the submucosa near the cervix of each animal with 25 µL of cell suspension in PBS, with a total of 4×10^5 cells/mouse. Four randomly distributed groups of 6 animals per group were formed. The treatment schedule was carried out for 5 days with a daily intravaginal infusion of the thermosensitive hydrogel containing the xanthatin nanocrystals (8.5 µL, 0.850 mg of nanocrystallized xanthatin per mouse) and placebo, and for 3 days with a daily intravaginal infusion of […] Tumor weight and tumor inhibition rates were evaluated. Tumor inhibition rate was calculated using the following formula: TIR = (Aw −Ax)/([…]) × 100 [formula]
Where: • TIR means tumor inhibition rate in %. • AW means the average weight of tumors in the control group. • Ax means the average weight of the tumors of the treated group.

[2] = test system: HT-29 human colorectal adenocarcinoma tumor line; assay: Cell cycle progression by flow cytometry (PI/RNase staining); assay type: cell-based; settings: HT-29 cells, 10 and 20 µM, 48 h, compared with untreated control and docetaxel 2 µM positive control
Experimental: Assay to evaluate the in vitro antiproliferative activity of nanocrystallized xanthatin by flow cytometry.
The antiproliferative activity through cell cycling arrest was evaluated in HT-29 cells. Cells were cultured in 6-well plates (2×10^5 and 1×10^5 cells/ml, respectively) until 90% confluence was reached. Three xanthatin samples were evaluated: commercial, laboratory-isolated, and nanocrystallized xanthatin at concentrations of 10 and 20 µM. Prior to treatment, both commercial and isolated xanthatin were dissolved in DMSO, unlike nanocrystallized xanthatin, which was added directly to the cell culture medium. Medium supplemented with 1% FBS was used as the control. Docetaxel 2 µM was used as a positive control for cell cycle arrest in G2/M. The treatments were added to the medium supplemented with 1% FBS on the day after seeding the cells on the plates. The cells were incubated for 48 h upon the treatments, harvested, fixed in 100% ethanol, and stored at -20°C. Cell cycle distribution was next assessed using flow cytometry. On the day of the assay, samples were incubated with a PI/Rnase mixture at room temperature and in the dark for 20 min prior to analysis.

[3] = test system: HT-29 colorectal adenocarcinoma; assay: MTT reduction assay, cell viability (HT-29); assay type: cell-based, human; settings: HT-29 cells, 10 and 20 µM, 24 h, isolated xanthatin dissolved in DMSO, nanocrystals added directly to the medium
Experimental: (§1) Cell growth inhibition of nanocrystallized xanthatin assessed using the MTT assay.
(§2) The viability of the cultured cells was assessed using the MTT reduction assay. The assay was performed using the method described by Mosmann (1983). HT-29 and HeLa cells were seeded in 96-well plates at 10^4 cells/ml and 5x10^3 cells/ml respectively. The cells were cultured in Dulbecco's modified Eagle's medium (DMEM) supplemented with 10% FBS, 1% glutamine, triple antibiotic (3A), and 25 mM glucose, and maintained at 37°C in a 5% CO2 incubator until 80-90% confluence. After 24h of incubation, to ensure cell adhesion, the medium was removed and different concentrations (10 and 20 µM) of either commercial xanthatin, isolated xanthatin, and xanthatin nanocrystals, or as a negative control medium supplemented with 1% DMSO, were added. Prior to treatment, the commercial and isolated xanthatin samples were dissolved in DMSO, unlike the nanocrystallized xanthatin that was directly added to the cell culture medium. The prepared plates were incubated for 24 h, and 50 µL MTT (5 mg/ml) per well was added to a final concentration of 1 mg/ml. […] Relative cell viability was determined by measuring the absorbance at 540 nm on an ELISA plate reader (Tecan Sunrise MR20-301, TECAN Austria). Absorbance is directly proportional to the level of cell proliferation or viability. […]

[4] = test system: HeLa cervical carcinoma tumor lines; assay: MTT reduction assay, cell viability (HeLa); assay type: cell-based, human; settings: HeLa cells, 10 and 20 µM, 24 h, isolated xanthatin dissolved in DMSO, nanocrystals added directly to the medium
Experimental: as §1, §2

In the case of N.N.O=C([O-])C1(C(=O)[O-])CCC1.[Pt+2] [injectable carboplatin, carboplatin], the tumor inhibition rate ([1]; calculated from average tumor weights) was 54.4% and the tumor weight ([1]; with respect to the placebo and control groups) was “significant decrease”.
C=C1C(=O)O[C@H]2C[C@H](C)C(/C=C/C(C)=O)=CC[C@H]12 [commercial xanthatin, xanthatin] was tested, and the “cell cycle arrest in the G2/M phase” value [2] was “no statistically significant differences”.
With C=C1C(=O)O[C@H]2C[C@H](C)C(/C=C/C(C)=O)=CC[C@H]12 [laboratory isolated xanthatin, xanthatin] the viability inhibition [3] was “significantly higher than that of commercial xanthatin”, the viability inhibition [4] was “significantly higher than that of commercial xanthatin” and the “cell cycle arrest in the G2/M phase” value ([2]; listed as isolated xanthatin) was “induced cell cycle arrest in the G2/M phase”.

Reference: patent EP4806421A2, “PHARMACEUTICAL COMPOSITIONS OF NANOCRYSTALLIZED XANTHATIN AND USE THEREOF AS AN ANTI-TUMOR AGENT” (Centro de Investigación y Desarrollo de Medicamentos CIDEM, priority 2023, dated 2025)
